From patent US11224601B1, “Compounds that inhibits MCL-1 protein” (priority 2017, dated 2022) come the findings set out here.

Experiment [1] relates to OPM-2 Luc cells. As to the kind of experiment: Tumor Pharmacodynamics (PD) model. Type of experiment: in vivo. To be noted: dosed orally to female athymic nude mice inoculated with OPM-2 Luc cells; compared with Reference Compound 1. The source says: Tumor Pharmacodynamics (PD)
FIGS. 1-7 illustrate the PD results of the cited Examples. The Reference Compound 1, an internal Amgen MC1-1 inhibitor compound made by one of the general schemes outlined in U.S. Pat. No. 9,562,061, herein incorporated by reference, is (1S,3′R,6′R,7′S,8′E,12′R)-6-chloro-12′-ethyl-7′-methoxy-3,4-dihydro-2H,15′H-spiro[naphthalene-1,22′-[20]oxa[13]thia[1,14]diazatetracyclo[14.7.2.0˜3,6˜.0˜19,24˜]pentacosa[8,16,18,24]tetraen]-15′-one 13′,13′-dioxide

Experiment [2] concerns the target recombinant human Mcl-1 (Mcl-1/Bim interaction) (Homo sapiens (Human), UniProt Q07820). As to the kind of experiment: biochemical. Type of experiment: binding. To be noted: cell free Mcl-1:Bim TR-FRET; read-out: Mcl-1 HTRF IC50. On the technique in general: TR-FRET usually uses a lanthanide donor and a delayed reading to cut background.
Method: Cell free Mcl-1:Bim Affinity Assay (Mcl-1 HTRF)
The inhibition of the Mcl-1/Bim interaction was measured using a time-resolved fluorescence resonance energy transfer (TR-FRET) assay. The recombinant human Mcl-1 (C-terminally 6×His tagged Mcl-1 containing residues 171-327) was generated at Amgen Inc (Thousand Oaks, Calif.). A biotinylated peptide derived from human Bim (residues 51-76) was purchased from CPC Scientific (San Jose, Calif.). The TR-FRET assay was conducted in a 384-well white OptiPlate™ (PerkinElmer, Waltham, Mass.) in a total volume of 40 μL. The reaction mixture contained 0.1 nM Mcl-1(171-327), 0.05 nM biotin-Bim(51-76), 0.05 nM LANCE® Eu-W1024 Anti-6×His (PerkinElmer), 0.072 nM Streptavidin-Xlent (Cisbio, Bedford, Mass.), and serially diluted test compounds in the binding buffer of 20 mM Hepes, pH 7.5, 150 mM NaCl, 0.016 mM Brij® 35, and 1 mM dithiothreitol. Test compounds were pre-incubated with Mcl-1(171-327) and biotin-Bim (51-76) for 60 min before addition of the detection mixture (LANCE® Eu-W1024 Anti-6×His and Streptavidin-Xlent). The reaction plates were further incubated overnight and then were read on an Envision® multimode reader (PerkinElmer). Fluorescence signals were measured at 620 nm (40-nm bandwidth) and 665 nm (7.5-nm bandwidth) with a 60 μs delay after excitation at 320 nm (75-nm bandwidth). The signal ratio at 665/620 nm corresponded to the Mcl-1/Bim interaction and was used in all data analyses. The IC50 values of test compounds were determined from duplicate data by analyzing competition curves using a four-parameter sigmoidal model in GraphPad Prism (GraphPad Software, San Diego, Calif.) or in Genedata Screener® (Genedata, Basel, Switzerland).
For experiment [3], the system named is OPM-2 Luc cells. The experiment is described as follows: OPM-2 xenograft efficacy model. Type of experiment: in vivo. Conditions: dosed orally to female athymic nude mice inoculated with OPM-2 Luc cells.
In experiment [4] the test system is OPM-2 human multiple myeloma cell line. As to the kind of experiment: Cell Viability Assay (OPM-2 10 FBS), CellTiter-Glo. The class given is cell-based. The procedure, abridged: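 Compounds, serially diluted, were left on OPM-2 cells (3000 cells/well, 10% FBS RPMI 1640) for 16 h at 37° C. under 5% CO2.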
On the technique in general: ATP-based viability assays read luminescence as a measure of living cells.

Like-named read-outs stand apart in the source and are kept apart here.

For orientation: IC50 means the concentration that inhibits the measured activity by half.

recombinant human Mcl-1 (Mcl-1/Bim interaction), sequence (Q07820 171-327): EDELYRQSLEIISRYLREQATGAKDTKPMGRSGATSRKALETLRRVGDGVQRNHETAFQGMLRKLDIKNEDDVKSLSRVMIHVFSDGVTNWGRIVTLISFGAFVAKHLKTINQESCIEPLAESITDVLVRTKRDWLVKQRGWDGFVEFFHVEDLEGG

`CCO[C@]1(CN2CCN3CCOC[C@@H]3C2)/C=C/C[C@H](C)[C@@H](CCOC)S(=O)(=O)NC(=O)c2ccc3c(c2)N(C[C@@H]2CC[C@H]21)C[C@@]1(CCCc2cc(Cl)ccc21)CO3` [Example 13, (1S,3′R,6′R,7′R,8′E,11′S,12′R)-6-chloro-7′-ethoxy-7′-((9aS)-hexahydropyrazino[2,1-c][1,4]oxazin-8(1H)-ylmethyl)-12′-(2-methoxyethyl)-11′-methyl-3,4-dihydro-2H,15′H-spiro[naphthalene-1,22′-[20]oxa[13]thia[1,14]diazatetracyclo[14.7.2.0˜3,6˜.0˜19,24˜]pentacosa[8,16,18,24]tetraen]-15′-one 13′,13′-dioxide]: the “in vivo efficacy in a tumor PD model relative to Reference Compound 1” value in the experiment on OPM-2 Luc cells [1] is “superior in vivo efficacy”. In experiment [2], the IC50 was 0.094 nM. Also, the “in vivo efficacy in an OPM-2 xenograft efficacy model” value in the experiment with OPM-2 Luc cells [3] was “in vivo efficacy”.

Take “(1S,3′R,6′R,7′R,8′E,11′S,12′R)-6-chloro-7′-((9aS)-hexahydropyrazino[2,1-c][1,4]oxazin-8(1H)-ylmethyl)-7′-methoxy-12′-(2-methoxyethyl)-11′-methyl-3,4-dihydro-2H,15′H-spiro[naphthalene-1,22′-[20]oxa[13]thia[1,14]diazatetracyclo[14.7.2.0˜3,6˜.0˜19,24˜]pentacosa[8,16,18,24]tetraen]-15′-one 13,13′-dioxide [Example 11]”: the IC50 in experiment [4] (read-out: OPM-2 10% FBS IC50 IP, OPM-2 cells, 10% FBS, 16 h, CellTiter-Glo) is 0.051 µM. Also, in the experiment on OPM-2 Luc cells [3], the “in vivo efficacy in an OPM-2 xenograft efficacy model” value was “in vivo efficacy”.

Take `CO[C@@]1(CN2CCN3CCOC[C@@H]3C2)/C=C/C[C@H](C)[C@@H](C)S(=O)(=O)NC(=O)c2ccc3c(n2)N(C[C@@H]2CC[C@H]21)C[C@@]1(CCCc2cc(Cl)ccc21)CO3` [Example 18, (1S,3′R,6′R,7′S,8′E,11′S,12′R)-6-chloro-7′-((9aS)-hexahydropyrazino[2,1-c][1,4]oxazin-8(1H)-ylmethyl)-7′-methoxy-11′,12′-dimethyl-3,4-dihydro-2H,15′H-spiro[naphthalene-1,22′-[20]oxa[13]thia[1,14,25]triazatetracyclo[14.7.2.0˜3,6˜.0˜19,24˜]pentacosa[8,16,18,24]tetraen]-15′-one 13′,13′-dioxide]: the “in vivo efficacy in a tumor PD model relative to Reference Compound 1” value in the experiment on OPM-2 Luc cells [1] is “superior in vivo efficacy”. Also, the IC50 in experiment [2] amounted to 0.06 nM; in experiment [4] (Homo sapiens, OPM-2, 16 h, read-out: OPM-2 10% FBS IC50 IP (μM), OPM-2 cells, 10% FBS, 16 h, CellTiter-Glo), 0.022 µM. The “in vivo efficacy in an OPM-2 xenograft efficacy model” value in the experiment on OPM-2 Luc cells [3] is reported as “in vivo efficacy”.
